Source: PMC8151276, “An Integrated Approach toward NanoBRET Tracers for Analysis of GPCR Ligand Engagement” (Molecules, 2021)

Target: T1, P2RY11 (Homo sapiens, UniProt Q96G91)
T1 construct: purchased Promega (in-house HiBiT-GPCR construct library, NanoBRET)
T1 sequence (Q96G91 1-374): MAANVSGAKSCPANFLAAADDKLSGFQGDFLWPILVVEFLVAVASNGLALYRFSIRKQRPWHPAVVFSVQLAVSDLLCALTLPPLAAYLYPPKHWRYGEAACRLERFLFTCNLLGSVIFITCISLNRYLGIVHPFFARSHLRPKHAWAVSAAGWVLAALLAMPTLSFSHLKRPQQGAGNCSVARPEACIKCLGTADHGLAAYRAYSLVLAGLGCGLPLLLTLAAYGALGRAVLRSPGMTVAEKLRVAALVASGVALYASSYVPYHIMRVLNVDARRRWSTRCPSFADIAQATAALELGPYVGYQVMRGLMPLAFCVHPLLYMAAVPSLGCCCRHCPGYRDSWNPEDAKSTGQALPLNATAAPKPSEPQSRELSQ
Assay: NanoBRET screen HiBiT-P2RY11 in HEK293
Format: binding
Protocol: Each tracer candidate was screened across the entire library of HiBiT-GPCR constructs using NanoBRET as the detection modality. As depicted in Figure 4A, the specificity of interactions was evaluated through decrease in BRET due to competitive displacement of a bound tracer by excess parental compound. Each tracer was analyzed for binding to each HiBiT-GPCR fusion in the absence and in the presence of competing parental compound. Briefly, HEK293 cells were transfected with HiBiT-GPCR constructs diluted into promoterless DNA to reduce expression and maximize translocation to the cell surface. Each tracer candidate was then screened at concentrations of 1 μM and 0.1 μM across cells expressing these fusions. Cells were treated for 1.5 h with tracer either alone or in the presence of 20 μM competing parental compound (i.e., control). BRET was measured upon addition of purified LgBiT and subsequent complementation with HiBiT genetically fused to a GPCR. The specificity of interactions was assessed through a decrease in BRET signal due to competitive displacement of the bound tracer. To further gauge the robustness of these interactions, the fold response over the control (i.e., BRETtracer/BRETcontrol) was calculated. We chose a 1.5-fold response, which translates to ≥7-fold signal over noise as the minimal threshold required to score an interaction as positive. […]. Below we highlight the screening results obtained for our exemplary fluorescent tracers based on Clozapine, Amitriptyline and AZD1283.
HiBiT-GPCR DNA constructs were diluted in 10 mM Tris pH 8 to a final concentration of 0.01 μg/μL, arrayed in 96-well plates and stored at −20 °C. For transfection, HEK293 cells were suspended in Opti-MEM (without phenol red) supplemented with 2% fetal bovine serum (Seradigm) and 100 units/mL penicillin–streptomycin (Gibco) at a final concentration of 220,000 cells/mL and dispensed into white 96-well plates at 90 μL/well. Subsequent transfections and screens were carried using an Agilent Bravo Automated Liquid Handling Platform. First, the 96-well HiBiT DNA arrays were diluted 25-fold in Opti-MEM (without serum or phenol red) to a final concentration of 0.0004 μg/μL and 20 μL of the diluted DNAs were transferred into new 96-well plates. Next, promoterless carrier DNA (1 μg/μL) was diluted 25-fold (0.04 μg/μL) and then dispensed into the diluted arrays at 20 μL/well. Following brief mixing, Viafect transfection reagent (Promega) diluted 16-fold into Opti-MEM was dispensed into the plates at 40 μL/well. After mixing by pipetting, plates were incubated for 10 min on the pipetting station deck. The DNA-transfection reagent complexes were then added to plates containing cells. To facilitate the screen, 10 μL of DNA-transfection reagent complexes were added in duplicates to the top 4 and bottom 4 rows, resulting in two identical 48-well arrays per plate. Plates with transfected cells were incubated for 18–20 h at 37 °C/5% CO2. A screen of each tracer across the entire library using two different concentrations requires duplicate plates of transfected cells. Depending on the number of tracers being screened, transfections can be scaled up using the same ratios. The next day, for each tracer, four 20× screening solutions in tracer dilution buffer (Promega) were prepared: two duplicates at final concentration of 20 μM and two duplicates at a final concentration of 2 μM. A competing unmodified compound was added to one of each duplicate at a final concentration of 400 μM. The four resulting solutions were diluted 4-fold in Opti-MEM without serum or phenol red to generate 5× solutions (5 µM and 0.5 µM tracer +/− 100 μM competing compound). To screen the library, a BioTek MultiFlo FX liquid dispenser was used to dispense 22.5 µL of tracer solution to the top 4 rows and 22.5 µL tracer + competing compound solution to the 4 bottom rows. Plates were briefly mixed on an orbital shaker and incubated for 1.5 h at room temperature. […]

CCOC(=O)c1cc(C#N)c(N2CCC(C(=O)NS(=O)(=O)Cc3ccccc3/C=C/C(=O)NCCNC(=O)CCc3ccc4n3[B-](F)(F)[N+]3=C(c5ccc[nH]5)C=CC3=C4)CC2)nc1C [AZD1283-1-NB590]
NanoBRET Fold Response (P2RY11, 0.1μM): 1.09
NanoBRET Fold Response (P2RY11, 1μM): 1.04

N#CN=C(NCCCOc1cccc(CN2CCCCC2)c1)NCCNC(=O)CCOCCOCCOCCOCCNC(=O)CCc1ccc2n1[B-](F)(F)[N+]1=C(c3ccc[nH]3)C=CC1=C2 [Aminopotentidine-2-NB590]
NanoBRET Fold Response (P2RY11, tracer 0.1μM): 1.14
NanoBRET Fold Response (P2RY11, tracer 1μM): 1.03

CN(C)CCC=C1c2ccccc2CCc2ccc(C(=O)NCCNC(=O)CCOCCOCCOCCOCCNC(=O)CCc3ccc4n3[B-](F)(F)[N+]3=C(c5ccc[nH]5)C=CC3=C4)cc21 [Amitriptyline-a-2-NB590]
NanoBRET Fold Response (tracer at 0.1μM): 1.13
NanoBRET Fold Response (tracer at 1μM): 1.07

CN(C)CCC=C1c2ccccc2CCc2ccc(C(=O)NCCNC(=O)CCOCCOCCOCCOCCNC(=O)CCc3ccc4n3[B-](F)(F)[N+]3=C(c5ccc[nH]5)C=CC3=C4)cc21 [Amitriptyline-b-2-NB590]
NanoBRET Fold Response (tracer at 0.1μM, listed as amitriptyline-b-2-NB590): 0.88
NanoBRET Fold Response (tracer at 1μM, listed as amitriptyline-b-2-NB590): 0.96

CN(CCC=C1c2ccccc2CCc2ccccc21)C(=O)CCOCCOCCOCCOCCNC(=O)CCc1ccc2n1[B-](F)(F)[N+]1=C(c3ccc[nH]3)C=CC1=C2 [Amitriptyline-e-2-NB590]
NanoBRET Fold Response (tracer at 1μM): 1.13

COc1ccc2c(n1)c(CCNC(C)=O)cn2CCNC(=O)CCc1ccc2n1[B-](F)(F)[N+]1=C(c3ccc[nH]3)C=CC1=C2 [Azamelatonin-1-NB590]
NanoBRET Fold Response (0.1μM tracer): 0.89
NanoBRET Fold Response (1μM tracer): 0.89

COc1ccc2[nH]c(-c3ccc(CNC(=O)CCOCCOCCOCCOCCNC(=O)CCc4ccc5n4[B-](F)(F)[N+]4=C(c6ccc[nH]6)C=CC4=C5)cc3)c(CCNC(C)=O)c2n1 [AzomelatoninICO9-2-NB590]
NanoBRET Fold Response (0.1μM tracer): 1.19
NanoBRET Fold Response (1μM tracer): 0.97

O=C(CCOCCOCCOCCOCCNC(=O)CCc1ccc2n1[B-](F)(F)[N+]1=C(c3ccc[nH]3)C=CC1=C2)NCCCN1CCN(C2=Nc3cc(Cl)ccc3Nc3ccccc32)CC1 [Clozapine-a-2-NB590]
NanoBRET Fold Response (P2RY11, 0.1μM tracer): 1.04
NanoBRET Fold Response (P2RY11, 1μM tracer): 0.93

CN1CCN(C2=Nc3cc(Cl)ccc3Nc3ccc(CNC(=O)CCOCCOCCOCCOCCNC(=O)CCc4ccc5n4[B-](F)(F)[N+]4=C(c6ccc[nH]6)C=CC4=C5)cc32)CC1 [Clozapine-b-2-NB590]
NanoBRET Fold Response (P2RY11, 0.1μM tracer): 1.04
NanoBRET Fold Response (P2RY11, 1μM tracer): 0.98

CN1CCN(C2=Nc3cc(Cl)ccc3N(CC(=O)NCCOCCOCCOCCOCCNC(=O)CCc3ccc4n3[B-](F)(F)[N+]3=C(c5ccc[nH]5)C=CC3=C4)c3ccccc32)CC1 [Clozapine-c-2-NB590]
NanoBRET Fold Response (P2RY11, 0.1μM tracer): 0.93
NanoBRET Fold Response (P2RY11, 1μM tracer): 0.98

O=C(CCOCCOCCOCCOCCNC(=O)CCc1ccc2n1[B-](F)(F)[N+]1=C(c3ccc[nH]3)C=CC1=C2)NCCCN1CCN(C2=Nc3ccccc3Oc3ccc(Cl)cc32)CC1 [Loxapine-a-2-NB590]
NanoBRET Fold Response (P2RY11, tracer 0.1μM): 1.02
NanoBRET Fold Response (P2RY11, tracer 1μM): 0.94

COc1ccccc1N1CCN(CCCCN2C(=O)c3ccc(CNC(=O)CCOCCOCCOCCOCCNC(=O)CCc4ccc5n4[B-](F)(F)[N+]4=C(c6ccc[nH]6)C=CC4=C5)cc3C2=O)CC1 [NAN-190-2-NB590]
NanoBRET Fold Response (P2RY11, tracer 0.1μM): 1.09
NanoBRET Fold Response (P2RY11, tracer 1μM): 0.99

COc1ccccc1N1CCN(CCCCN2C(=O)c3ccc(CNC(=O)CCOCCNC(=O)c4ccc(CNC(=O)CCc5ccc6n5[B-](F)(F)[N+]5=C(c7ccc[nH]7)C=CC5=C6)cc4)cc3C2=O)CC1 [NAN-190-3-NB590]
NanoBRET Fold Response (P2RY11, tracer 0.1μM): 1.05
NanoBRET Fold Response (P2RY11, tracer 1μM): 0.96

O=C(CCc1ccc2n1[B-](F)(F)[N+]1=C(c3ccc[nH]3)C=CC1=C2)NCc1ccc(C(=O)NCCOCCC(=O)N[C@@H]2CC[C@@]3(O)[C@H]4Cc5ccc(O)c6c5[C@@]3(CCN4CC3CC3)[C@H]2O6)cc1 [Naltrexone-3-NB590]
NanoBRET Fold Response (P2RY11, tracer 0.1μM): 1.26
NanoBRET Fold Response (P2RY11, tracer 1μM): 0.71

Cc1cc2c(s1)Nc1ccccc1N=C2N1CCN(CCCNC(=O)CCOCCOCCOCCOCCNC(=O)CCc2ccc3n2[B-](F)(F)[N+]2=C(c4ccc[nH]4)C=CC2=C3)CC1 [Olanzapine-a-2-NB590]
NanoBRET Fold Response (P2RY11, tracer 0.1μM): 1.00
NanoBRET Fold Response (P2RY11, tracer 1μM): 0.89

O=C(CCc1ccc2n1[B-](F)(F)[N+]1=C(c3ccc[nH]3)C=CC1=C2)NCc1ccc(C(=O)NCCOCCOCCNCC(O)COc2cccc3ccccc23)cc1 (centres unmarked) [Propranolol-3-NB590]
NanoBRET Fold Response (P2RY11, 0.1μM): 1.03
NanoBRET Fold Response (P2RY11, 1μM): 0.96

O=C(CCc1ccc2n1[B-](F)(F)[N+]1=C(c3ccc[nH]3)C=CC1=C2)NCCOCCOCCNC(=O)OCCOCCN1CCN(C2=Nc3ccccc3Sc3ccccc32)CC1 [Quetiapine-a-2-NB590]
NanoBRET Fold Response (P2RY11, tracer 0.1μM): 1.05
NanoBRET Fold Response (P2RY11, tracer 1μM): 0.91

Cc1nc2n(c(=O)c1CCN1CCC(c3noc4cc(F)ccc34)CC1)CCCC2OC(=O)NCCOCCOCCOCCOCCNC(=O)CCc1ccc2n1[B-](F)(F)[N+]1=C(c3ccc[nH]3)C=CC1=C2 (centres unmarked) [Risperidone-2-NB590]
NanoBRET Fold Response (P2RY11, tracer 0.1μM): 1.04
NanoBRET Fold Response (P2RY11, tracer 1μM): 0.88

CC(C)N(CC[C@H](c1ccccc1)c1cc(CCNC(=O)CCOCCOCCOCCOCCNC(=O)CCc2ccc3n2[B-](F)(F)[N+]2=C(c4ccc[nH]4)C=CC2=C3)ccc1O)C(C)C [Tolterodine-2-NB590]
NanoBRET Fold Response (P2RY11, tracer 0.1μM): 1.31
NanoBRET Fold Response (P2RY11, tracer 1μM): 0.83

CC(C)N(CC[C@H](c1ccccc1)c1cc(CCNC(=O)c2ccc(CNC(=O)CCc3ccc4n3[B-](F)(F)[N+]3=C(c5ccc[nH]5)C=CC3=C4)cc2)ccc1O)C(C)C [Tolterodine-BZ-NB590]
NanoBRET Fold Response (P2RY11, tracer 0.1μM): 1.07
NanoBRET Fold Response (P2RY11, tracer 1μM): 0.96

CCCn1c(=O)c2[nH]c(-c3ccc(OCC(=O)NCCNC(=O)CCOCCNC(=O)c4ccc(CNC(=O)CCc5ccc6n5[B-](F)(F)[N+]5=C(c7ccc[nH]7)C=CC5=C6)cc4)cc3)nc2n(CCC)c1=O [XAC-3-NB590]
NanoBRET Fold Response (P2RY11, tracer 0.1μM): 1.21
NanoBRET Fold Response (P2RY11, tracer 1μM): 1.25
